PubChem BioAssay (NCI)
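Compound exposure: 48 hours, 5 concentrations, 96-well plates. TGI denotes the concentration required for complete inhibition of growth.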

Legend:
Assay in all cases: NCI-60 cell line screen, 48 h
UO-31 renal = test system: UO-31 renal
DLD-1 colon = test system: DLD-1 colon
ACHN renal = test system: ACHN renal
HCT-15 colon = test system: HCT-15 colon
COLO 205 colon = test system: COLO 205 colon
OVCAR-4 ovarian = test system: OVCAR-4 ovarian
NCI-H226 lung = test system: NCI-H226 lung
LOX IMVI melanoma = test system: LOX IMVI melanoma
HL-60(TB) leukemia = test system: HL-60(TB) leukemia
SK-OV-3 ovarian = test system: SK-OV-3 ovarian
EKVX NSCLC = test system: EKVX NSCLC
U251 CNS = test system: U251 CNS
SNB-19 CNS = test system: SNB-19 CNS
SF-295 CNS = test system: SF-295 CNS
SNB-78 CNS = test system: SNB-78 CNS
HOP-62 NSCLC = test system: HOP-62 NSCLC
SNB-75 CNS = test system: SNB-75 CNS
NCI-H460 lung = test system: NCI-H460 lung
786-0 renal = test system: 786-0 renal
SK-MEL-5 melanoma = test system: SK-MEL-5 melanoma
CCRF-CEM leukemia = test system: CCRF-CEM leukemia
RXF 393 renal = test system: RXF 393 renal
MOLT-4 leukemia = test system: MOLT-4 leukemia
OVCAR-8 ovarian = test system: OVCAR-8 ovarian
RXF-631 renal = test system: RXF-631 renal
SK-MEL-28 melanoma = test system: SK-MEL-28 melanoma
A549 NSCLC = test system: A549 NSCLC
DMS 273 small cell lung = test system: DMS 273 small cell lung
IGROV1 ovarian = test system: IGROV1 ovarian
HOP-92 NSCLC = test system: HOP-92 NSCLC
SN12C renal = test system: SN12C renal
HT29 colon = test system: HT29 colon
XF 498 CNS = test system: XF 498 CNS
HCC-2998 colon = test system: HCC-2998 colon
SK-MEL-2 melanoma = test system: SK-MEL-2 melanoma
TK-10 renal = test system: TK-10 renal
UACC-62 melanoma = test system: UACC-62 melanoma
K-562 leukemia = test system: K-562 leukemia
M14 melanoma = test system: M14 melanoma
MALME-3M melanoma = test system: MALME-3M melanoma
CAKI-1 renal = test system: CAKI-1 renal
SW-620 colon = test system: SW-620 colon
OVCAR-5 ovarian = test system: OVCAR-5 ovarian
KM20L2 colon = test system: KM20L2 colon
KM12 colon = test system: KM12 colon
DMS 114 small cell lung = test system: DMS 114 small cell lung
UACC-257 melanoma = test system: UACC-257 melanoma
LXFL 529 NSCLC = test system: LXFL 529 NSCLC
RPMI-8226 leukemia = test system: RPMI-8226 leukemia
OVCAR-3 ovarian = test system: OVCAR-3 ovarian
HCT-116 colon = test system: HCT-116 colon
SF-539 CNS = test system: SF-539 CNS
NCI-H23 lung = test system: NCI-H23 lung
M19-MEL melanoma = test system: M19-MEL melanoma
A498 renal = test system: A498 renal
SF-268 CNS = test system: SF-268 CNS

Measured: TGI

CCOC(=O)C(C(C)=O)C1CC=CC1 (stereo unspecified)
not listed: SF-539 CNS | NCI-H23 lung | M19-MEL melanoma | A498 renal | SF-268 CNS
> 100 µM: all other assays above

CC(=O)N(C(C)=O)c1c(N)n(C)c(=O)[nH]c1=O
not listed: SK-OV-3 ovarian | U251 CNS | SNB-78 CNS | HOP-62 NSCLC | SNB-75 CNS | TK-10 renal
> 100 µM: all other assays above
